Laboratory results: US10729692B2, “Dual inhibition of CDK and HSP90 destabilize HIF1alpha and synergistically induces cancer cell death” (Institute For Cancer Research, priority 2017, dated 2020)

Key:
HIF1α [1] = assay: HIF1α level in RCC4 cells (Western blot); assay type: cell-based; conditions: 6 hours under normoxia, independently of VHL presence
From the text: (§1) HCT116, SW480, HT29, DLD1, and RKO cells were obtained from American Type Culture Collection. HCT116 and HT29 cells were maintained in McCoy's 5A medium (Hyclone) with 10% fetal bovine serum (FBS, Hyclone) and 1% penicillin/streptomycin (P/S). SW480, DLD1, and RCC4 cells were maintained in Dulbecco's modified Eagle medium (Hyclone) with 10% FBS and 1% P/S. RKO cells were maintained in RPMI 1640 medium (Hyclone) with 10% FBS and 1% P/S. Cells were regularly tested and authenticated. All cell lines were maintained at 37° C. in 5% CO2. As for hypoxia treatment, cells were kept in a hypoxia chamber (In vivo^2, Ruskinn) which maintains 0.5% O2.
(§2) Treated cells were lysed in RIPA buffer (Sigma). Protein concentrations were determined using a BCA Protein Assay Kit (Life Technologies). Equal amounts of total protein were boiled with LDS sample buffer (Thermo Fisher Scientific) and reducing agent (Invitrogen). Samples were analyzed with SDS-PAGE. Proteins were transferred to an Immobilon-P PVDF membrane (EMD Millipore). First and secondary antibodies were added in order. Signals were detected after addition of the ECL western blotting substrate (Thermo Fisher Scientific).

HIF1α [2] = assay: Heat shock-induced HIF1α level in HCT116 (Western blot); assay type: cell-based; conditions: HCT116, normoxia
From the text: as §1, §2

O=C1NC(=NCc2cccs2)S/C1=C\c1ccc2ncccc2c1 [Ro-3306]
level of HIF1α (HIF1α [1]): decreases | reversal of heat shock upregulation of HIF1α (HIF1α [2]): reversed
